Test results published in paper PMC8317962, “Development of tacrine clusters as positively cooperative systems for the inhibition of acetylcholinesterase” (Journal of Enzyme Inhibition and Medicinal Chemistry, 2021).
Where two headings read alike, the source gives them in different places.

What was measured:
[1] = biological target: T1, acetylcholinesterase from Electrophorus electricus (Electrophorus electricus, UniProt O42275); experiment: biochemical; type: biochemical; details: for IC50: read-out: AChE IC50; for AChE rp (relative inhibition potency): rp = IC50 (mono-tacrine)/IC50 (tetra-tacrine); for AChE rp/n (inhibition potency on valency-corrected basis): rp/n = rp/number of tacrine rings; for less active when connected to the central multivalent sugar scaffold: from rp/n of the corresponding tetra-tacrine
T1 construct: purchased Sigma Aldrich type V-S
Experimental: (§1) For the assessment of enzymatic inhibition, commercially available acetylcholinesterase from Electrophorus electricus (type V-S, Sigma Aldrich) was used, conducting minor modifications on Ellman’s protocol. […] Enzymatic activities were measured in a UV–Vis instrument (Hitachi U-2900) using PS cuvettes containing […] phosphate buffer (pH 8.0), 5,5′-dithiobis(2-nitrobenzoic acid) (DTNB, 0.88 mM, buffer solution), acetylthiocholine iodide as a model substrate, inhibitor, properly diluted aqueous enzyme solution, and water up to 1.2 ml. Solutions of the enzymes were prepared so as to keep the reaction rate within 0.12–0.15 Abs/min when [S] = 4 × KM.
Calculation of IC50 values was accomplished by plotting %I vs. log[I] and adjusting to a second-order equation.
(§2) Data are expressed as the mean ± SD.

[2] = biological target: T1, acetylcholinesterase from Electrophorus electricus; experiment: Kinetic study of AChE inhibition mode (Cornish-Bowden plots, inhibition constants); type: biochemical; details: for Ki: mean ± SD
Experimental: as §1, with “KM. The formation of the chromophore was monitored during 125 s at 405 nm and 25 °C.” for “KM.”
For the calculation of the kinetic parameters of the free enzyme, and in the presence of 3a, five different substrate concentrations, ranging from ¼ KM to 4 × KM were used. Cornish-Bowden method[26] provided the mode of inhibition of 3a; for that purpose, two different plots were used: 1/v vs. [I] (Dixon plot) and [S]/v vs. [I]. […] Kinetic parameters (KM, Vmax, KM app, Vmax app) were obtained through non-linear regression analysis (least squares fit) using the GraphPad Prism 8.01 software and inhibition constants were calculated using the following equations: (1) KM,app=KM1+[I]/Kia/1+[I]/Kib (2) Vmaxapp=Vmax/1+[I]/Kib
as §2

AChE = details: cited from earlier work
[3] = [S] = 121 μM, Electrophorus electricus AChE, mean ± SD

T1 sequence (O42275 24-633): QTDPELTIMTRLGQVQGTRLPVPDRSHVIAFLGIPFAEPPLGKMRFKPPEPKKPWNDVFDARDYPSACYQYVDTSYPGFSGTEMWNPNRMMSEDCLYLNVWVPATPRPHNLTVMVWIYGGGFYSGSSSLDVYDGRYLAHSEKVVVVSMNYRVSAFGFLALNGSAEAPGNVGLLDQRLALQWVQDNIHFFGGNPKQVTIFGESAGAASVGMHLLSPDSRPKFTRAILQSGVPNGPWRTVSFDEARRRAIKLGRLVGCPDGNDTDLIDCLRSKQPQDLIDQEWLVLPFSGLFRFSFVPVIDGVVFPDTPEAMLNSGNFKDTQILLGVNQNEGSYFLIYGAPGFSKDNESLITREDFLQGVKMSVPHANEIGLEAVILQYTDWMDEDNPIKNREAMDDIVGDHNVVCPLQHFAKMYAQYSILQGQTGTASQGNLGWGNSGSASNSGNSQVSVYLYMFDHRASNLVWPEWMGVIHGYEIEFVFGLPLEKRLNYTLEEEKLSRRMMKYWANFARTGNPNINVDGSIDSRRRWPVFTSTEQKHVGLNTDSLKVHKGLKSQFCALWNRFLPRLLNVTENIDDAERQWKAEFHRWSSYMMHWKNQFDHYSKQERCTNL

SMILES: CO[C@H]1O[C@H](COCc2cn(CCCNc3c4c(nc5ccccc35)CCCC4)nn2)[C@@H](OCc2cn(CCCNc3c4c(nc5ccccc35)CCCC4)nn2)[C@H](OCc2cn(CCCNc3c4c(nc5ccccc35)CCCC4)nn2)[C@H]1OCc1cn(CCCNc2c3c(nc4ccccc24)CCCC3)nn1 [Compound 4a]
- IC50 [1, 3]: 60.2 ± 5.5 nM
- AChE rp (relative inhibition potency) [1]: 5.8
- AChE rp/n (inhibition potency on valency-corrected basis) [1]: 1.5

SMILES: OCc1cn(CCCNc2c3c(nc4ccccc24)CCCC3)nn1 [Compound 4b, (1-(3-((1,2,3,4-tetrahydroacridin-9-yl)amino)propyl)-1H-1,2,3-triazol-4-yl)metanol]
- IC50 [1]: 348 ± 23 nM

SMILES: CO[C@H]1O[C@H](COCc2cn(CCCCCCNc3c4c(nc5ccccc35)CCCC4)nn2)[C@@H](OCc2cn(CCCCCCNc3c4c(nc5ccccc35)CCCC4)nn2)[C@H](OCc2cn(CCCCCCNc3c4c(nc5ccccc35)CCCC4)nn2)[C@H]1OCc1cn(CCCCCCNc2c3c(nc4ccccc24)CCCC3)nn1 [Compound 5a]
- IC50 [1]: 12.5 ± 3.3 nM
- AChE rp (relative inhibition potency) [1]: 1.0

SMILES: OCc1cn(CCNc2c3c(nc4ccccc24)CCCC3)nn1 [Compound 3b, (1-(2-((1,2,3,4-tetrahydroacridin-9-yl)amino)ethyl)-1H-1,2,3-triazol-4-yl)metanol]
- IC50 [1]: 565 ± 79 nM

SMILES: CO[C@H]1O[C@H](COCc2cn(CCCCCCCCNc3c4c(nc5ccccc35)CCCC4)nn2)[C@@H](OCc2cn(CCCCCCCCNc3c4c(nc5ccccc35)CCCC4)nn2)[C@H](OCc2cn(CCCCCCCCNc3c4c(nc5ccccc35)CCCC4)nn2)[C@H]1OCc1cn(CCCCCCCCNc2c3c(nc4ccccc24)CCCC3)nn1 [Compound 6a]
- IC50 [1, 3]: 232 ± 21 nM
- AChE rp (relative inhibition potency) [1]: 0.03

SMILES: CO[C@H]1O[C@H](COCc2cn(CCNc3c4c(nc5ccccc35)CCCC4)nn2)[C@@H](OCc2cn(CCNc3c4c(nc5ccccc35)CCCC4)nn2)[C@H](OCc2cn(CCNc3c4c(nc5ccccc35)CCCC4)nn2)[C@H]1OCc1cn(CCNc2c3c(nc4ccccc24)CCCC3)nn1 [Compound 3a]
- IC50 [1]: 43.7 ± 7.3 nM
- AChE rp (relative inhibition potency) [1]: 12.9
- AChE rp/n (inhibition potency on valency-corrected basis) [1]: 3.2
- mode of inhibition of AChE ([2]; Cornish-Bowden method): Mixed inhibition
- Ki ([2]; binding to enzyme-substrate complex, read-out: Kib (non-competitive inhibition constant)): 45 ± 5.9 nM
- Ki ([2]; binding to free enzyme, read-out: Kia (competitive inhibition constant)): 31.6 ± 2 nM

SMILES: OCc1cn(CCCCCCCCNc2c3c(nc4ccccc24)CCCC3)nn1 [Compound 6b, (1-(8-((1,2,3,4-Tetrahydroacridin-9-yl)amino)octyl)-1H-1,2,3-triazol-4-yl)metanol]
- less active when connected to the central multivalent sugar scaffold [1]: more than 99%
- IC50 [1]: 7.1 ± 1 nM

SMILES: CO[C@H]1O[C@H](CO)[C@@H](O)[C@H](O)[C@H]1O [Methyl α-D-glucopyranoside, methyl α-D-glucopyranoside, reference compound]
- AChE inhibition (N.I.) ([1]; Tested at 100 μM inhibitor concentration, [S] = 121 μM): N.I.^d

SMILES: OCc1cn(CCCCCCNc2c3c(nc4ccccc24)CCCC3)nn1 [Compound 5b, (1-(6-((1,2,3,4-tetrahydroacridin-9-yl)amino)hexyl)-1H-1,2,3-triazol-4-yl)metanol]
- less active when connected to the central multivalent sugar scaffold [1]: 75%
- IC50 [1]: 12.6 ± 2.4 nM

SMILES: c1ccc2c(NCCCCCCCNc3c4c(nc5ccccc35)CCCC4)c3c(nc2c1)CCCC3 [bis(7)tacrine]
- fold stronger AChE inhibitor than tacrine (AChE): ~1000 fold
